From publication PMC5833756, “A novel ruthenium complex with xanthoxylin induces S-phase arrest and causes ERK1/2-mediated apoptosis in HepG2 cells through a p53-independent pathway” (Cell Death & Disease, 2018)

What was measured:
HepG2 cell xenografts = experiment: Human hepatocellular carcinoma xenograft model; type: in vivo, C.B-17 SCID mice; conditions: 0.3 mg/kg doxorubicin, 10 mg/kg 5-fluorouracil, i.p. once a day for 21 days
Method: Animals were housed in cages with free access to food and water. All animals were kept under a 12:12 h light-dark cycle (lights on at 6:00 a.m.). The local Animal Ethics Committee approved the experimental protocol (number 06/2015).
HepG2 cells (1 × 10^7 cells per 500 µL) were implanted subcutaneously into the left front armpit of the mice. […] The treatments were initiated one day after the tumor cell injection. The animals were treated intraperitoneally (200 µL per animal) once daily for 21 consecutive days. On the 22nd day, the animals were anesthetized, and peripheral blood samples were collected from the brachial artery. Animals were euthanized by anesthetic overdose, and tumors were excised and weighed.

ERK1/2 (pT202/pY204) = experiment: Phosflow analysis; type: cell-based, human; conditions: HepG2, 12 µM RCX, 15 min, 30 min, 24 h
Method: (§1) Phosphorylated ERK 1/2, JNK/SAPK and p38 MAPK were analyzed by flow cytometry. In brief, cells were collected and resuspended in 0.5–1 mL of 4% formaldehyde and fixed for 10 min at 37 °C. Then, the tubes were chilled on ice for 1 min. The cells were permeabilized by slowly adding ice-cold 100% methanol to prechilled cells while gently vortexing to a final concentration of 90% methanol and were incubated for 30 min on ice. After washing with incubation buffer (0.5% bovine serum albumin in PBS), PE mouse anti-ERK1/2 (pT202/pY204), PE mouse anti-JNK/SAPK (pT183/pY185), PE mouse anti-p38 MAPK (pT180/pY182) or PE mouse IgG1, κ isotype control antibodies, all from BD Biosciences, were added and incubated for 1 h at room temperature.

p38 MAPK (pT180/pY182) = experiment: Phosflow analysis; type: cell-based, human; conditions: HepG2, 12 µM RCX, 15 min, 30 min, 24 h
Method: as §1

JNK/SAPK (pT183/pY185) = experiment: Phosflow analysis; type: cell-based, human; conditions: HepG2, 12 µM RCX, 15 min, 30 min, 24 h
Method: as §1

caspase-3 = experiment: Caspase-3 colorimetric activation assay; type: cell-based, human; conditions: HepG2, 48 h
Method: (§2) A caspase-3 colorimetric assay kit (Sigma-Aldrich), caspase-8 colorimetric assay kit (BioVision Inc.; Milpitas, CA, USA) and caspase-9 colorimetric assay kit (Invitrogen; Frederick, MD, USA) were used to investigate the activation of caspase-3, -8 and -9 in RCX-treated HepG2, respectively. […] Briefly, cells were lysed by incubation with cell lysis buffer on ice for 10 min and then centrifuged. Enzyme reactions were carried out in a 96-well flat-bottom microplate. To each reaction mixture, 5 μL of cell lysate was added. Absorbance at 405 nm was measured using the SpectraMax 190 Microplate Reader (Molecular Devices). The results are expressed as the specific activity (IU/mg protein) of each caspase.

caspase-9 = experiment: Caspase-9 colorimetric activation assay; type: cell-based, human; conditions: HepG2, 48 h
Method: as §2

caspase-8 = experiment: Caspase-8 colorimetric activation assay; type: cell-based, human; conditions: HepG2, 48 h
Method: as §2

HepG2 cells = experiment: DNA synthesis quantification (methyl-[3H]-thymidine incorporation); type: cell-based, human
Method: Cellular DNA synthesis was quantified by the incorporation of methyl-[^3H]-thymidine. Methyl-[^3H]-thymidine is a radiolabeled DNA precursor that is incorporated into newly synthesized DNA. Briefly, the complex was added along with 1 µCi of methyl-[^3H]-thymidine (PerkinElmer; Shelton, CT, USA) and incubated for 3 h. After this incubation period, cultures were harvested using a cell harvester (Brandel, Inc., Gaithersburg, MD, USA), and the amount of incorporated^3H-thymidine was determined using a liquid scintillation cocktail Hidex Maxilight (PerkinElmer Life Sciences; Groningen, GE, Netherlands) and a plate CHAMELEON V multilabel Counter (Mustionkatu 2, Turku, Finland). Mitoxantrone (Sigma-Aldrich) was used as the positive control.

Row | SMILES | reduction of tumor weight (HepG2 cell xenografts) | phosphorylation of ERK1/2 (ERK1/2 (pT202/pY204)) | phosphorylation of p38 MAPK (p38 MAPK (pT180/pY182)) | phosphorylation of JNK/SAPK (JNK/SAPK (pT183/pY185)) | caspase-3 activity (caspase-3) | caspase-9 activity (caspase-9) | caspase-8 activity (caspase-8) | reduction of DNA synthesis (HepG2 cells; HepG2, 12 μM) | reduction of DNA synthesis (HepG2 cells; HepG2, 24 μM)
1 | COc1cccc2c1C(=O)c1c(O)c3c(c(O)c1C2=O)C[C@@](O)(C(=O)CO)C[C@@H]3O[C@H]1C[C@H](N)[C@H](O)[C@H](C)O1 [DOX, doxorubicin] | 27.2% | – | – | – | – | – | – | – | –
2 | COc1cc([O-])c(C(C)=O)c(OC)c1.F[P-](F)(F)(F)(F)F.[Ru+2].c1cnc2c(c1)ccc1cccnc12.c1cnc2c(c1)ccc1cccnc12 [RCX, cis-[Ru(phen)2(xant)](PF6)] | – | induced the phosphorylation of ERK1/2 after 15- and 30-min incubations | an increase in the phosphorylation of p38 MAPK was not observed at any time point investigated | the phosphorylation of JNK/SAPK after a 15-min incubation | caused the activation of all caspases analyzed | caused the activation of all caspases analyzed | caused the activation of all caspases analyzed | 46.4% | 65.2%
